Measurements published in DBAASP.
≈ marks a conversion by molar mass, not a printed value.

How the values were obtained:
Assay in all cases: ≥ marks a high value that may be exact or a test limit, other limits are often not marked, values filed in µg/mL are converted to µM
[1] = test system: Salmonella typhimurium KCTC 1926
[2] = test system: Bacillus subtilis KCTC 3068
[3] = test system: Staphylococcus aureus KCTC 1621
[4] = test system: Escherichia coli KCTC 1682
[5] = test system: Escherichia coli ATCC 8739
[6] = test system: Staphylococcus aureus ATCC 25923
[7] = test system: Candida albicans ATCC 90028
[8] = test system: Staphylococcus aureus ATCC 6538
[9] = test system: Bacillus subtilis ATCC 6633
[10] = test system: Staphylococcus aureus ATCC 43300
[11] = test system: Staphylococcus aureus NCTC 8325
[12] = test system: Escherichia coli ATCC 25922
Escherichia coli BL21 = test system: Escherichia coli BL21

MIC [5] | MIC [7] | MIC [11] | MIC [12] | SMILES | further results
 |  |  |  | CC(C)C[C@H](NC(=O)[C@H](Cc1ccccc1)NC(=O)[C@@H]1CCCN1C(=O)[C@H](Cc1c[nH]c2ccccc12)NC(=O)[C@H](Cc1c[nH]c2ccccc12)NC(=O)[C@H](Cc1c[nH]c2ccccc12)NC(=O)[C@@H]1CCCN1C(=O)[C@H](Cc1ccccc1)NC(=O)[C@H](CCCNC(=N)N)NC(=O)[C@H](CCCNC(=N)N)NC(=O)[C@@H](N)C(C)C)C(=O)N[C@@H](CCCNC(=N)N)C(=O)N[C@@H](CCCNC(=N)N)C(=O)O [VRRFPWWWPFLRR] | MIC [1]: 16.8 µM (≈ 32 µg/mL); MIC [2]: 8.41 µM (≈ 16 µg/mL); MIC [3]: 8.41 µM (≈ 16 µg/mL); MIC [4]: ≥ 33.6 µM
≥ 138 µM |  |  |  | CSCC[C@H](N)C(=O)N[C@@H](CO)C(=O)N[C@@H](C)C(=O)N[C@@H](CCC(=O)O)C(=O)N[C@H](C(=O)N[C@H](C(=O)N[C@H](C(=O)N[C@@H](CCCCN)C(=O)N[C@@H](CCCCN)C(=O)N[C@H](C(=O)N[C@@H](CC(=O)O)C(=O)NCC(=O)N[C@@H](CC(=O)O)C(=O)N[C@@H](C)C(=O)N[C@@H](CC(C)C)C(=O)N[C@@H](CCC(=O)O)C(=O)N[C@@H](CC(C)C)C(=O)NCC(=O)O)C(C)C)C(C)C)C(C)C)C(C)C [MSAEVVVKKVDGDALELG] | MIC [6]: > 138 µM
3.1 µM (≈ 15.1 µg/mL) | ≥ 50 µM |  |  | CC[C@H](C)[C@H](NC(=O)CNC(=O)[C@H](CCCCN)NC(=O)[C@H](CC(C)C)NC(=O)[C@@H](NC(=O)[C@H](CC(C)C)NC(=O)[C@H](CC(N)=O)NC(=O)[C@H](CCCCN)NC(=O)[C@@H](NC(=O)[C@H](C)NC(=O)[C@H](CCCCN)NC(=O)CNC(=O)CNC(=O)[C@@H](NC(=O)[C@H](CCCCN)NC(=O)[C@H](CO)NC(=O)[C@H](Cc1ccccc1)NC(=O)[C@@H](NC(=O)[C@@H](N)CCCN=C(N)N)[C@@H](C)CC)[C@@H](C)CC)[C@@H](C)CC)[C@@H](C)CC)C(=O)N[C@@H](CCCCN)C(=O)N[C@@H](CC(N)=O)C(=O)N[C@H](C(=O)NCC(=O)N[C@@H](CCCCN)C(=O)N[C@@H](CCC(=O)O)C(=O)N[C@H](C(=O)NCC(=O)N[C@@H](CCSC)C(=O)N[C@@H](CC(=O)O)C(=O)N[C@H](C(=O)N[C@H](C(=O)N[C@@H](CCCN=C(N)N)C(=O)N[C@H](C(=O)NCC(=O)N[C@H](C(=O)N[C@@H](CC(=O)O)C(=O)N[C@H](C(=O)N[C@@H](C)C(=O)NCC(=O)N[C@H]1CSSC[C@@H](C(=O)O)NC(=O)[C@H](CCC(=O)O)NC(=O)CNC(=O)[C@H](CCCCN)NC(=O)[C@H]([C@@H](C)CC)NC(=O)[C@H](CCCCN)NC1=O)C(C)C)[C@@H](C)CC)[C@@H](C)O)[C@@H](C)CC)C(C)C)C(C)C)[C@@H](C)CC [RIFSKIGGKAIKNLILKGIKNIGKEVGMDVIRTGIDVAGCKIKGEC] | MIC [8]: 3.1 µM (≈ 15.1 µg/mL); MIC [9]: 12.5 µM (≈ 61 µg/mL); MIC [10]: 12.5 µM (≈ 61 µg/mL)
14.7 µM (≈ 32 µg/mL) |  |  |  | CC[C@H](C)[C@H](NC(=O)[C@H](CCCCN)NC(=O)[C@H](C)NC(=O)[C@@H](NC(=O)[C@@H](NC(=O)[C@H](CCCN=C(N)N)NC(=O)[C@H](C)NC(=O)[C@H](CC(C)C)NC(=O)[C@@H](NC(=O)[C@H](CCCCN)NC(=O)[C@H](C)NC(=O)[C@H](C)NC(=O)[C@H](Cc1ccccc1)NC(=O)[C@H](CC(C)C)NC(=O)[C@H](CCCCN)NC(=O)[C@H](CCCCN)NC(=O)[C@H](CCSC)NC(=O)[C@@H]1CCCN1)[C@@H](C)CC)C(C)C)C(C)C)C(=O)N[C@@H](Cc1c[nH]c2ccccc12)C(=O)O [PMKKLFAAKILARVVAKIW] | MIC [6]: > 117 µM
 |  | 12 µM (≈ 59.2 µg/mL) | 1 µM (≈ 4.93 µg/mL) | CC[C@H](C)[C@H](NC(=O)CNC(=O)[C@@H](NC(=O)[C@H](CCCN=C(N)N)NC(=O)[C@@H](NC(=O)[C@H](CC(C)C)NC(=O)[C@H](CC(=O)O)NC(=O)[C@H](CCSC)NC(=O)CNC(=O)[C@H](C)NC(=O)[C@H](CCC(=O)O)NC(=O)[C@H](CCCCN)NC(=O)CNC(=O)[C@@H](NC(=O)[C@@H](NC(=O)[C@H](CCCCN)NC(=O)[C@@H](NC(=O)[C@@H](NC(=O)[C@H](CC(N)=O)NC(=O)[C@H](Cc1ccccc1)NC(=O)[C@@H](NC(=O)CNC(=O)[C@@H](NC(=O)[C@H](CCCCN)NC(=O)[C@H](C)NC(=O)[C@H](CCCCN)NC(=O)[C@H](CCCCN)NC(=O)[C@H](CCCCN)NC(=O)[C@H](CC(N)=O)NC(=O)[C@@H](NC(=O)[C@H](CCCCN)NC(=O)[C@@H]1CCCN1C(=O)[C@H](Cc1ccccc1)NC(=O)[C@H](CC(C)C)NC(=O)CN)[C@@H](C)CC)[C@@H](C)O)C(C)C)[C@@H](C)CC)[C@@H](C)CC)[C@@H](C)O)C(C)C)[C@@H](C)CC)[C@@H](C)O)C(=O)N[C@@H](CC(=O)O)C(=O)N[C@H](C(=O)N[C@H](C(=O)NCC(=O)N[C@H]1CSSC[C@@H](C(=O)O)NC(=O)[C@H](CCC(=O)O)NC(=O)CNC(=O)[C@H](CCCCN)NC(=O)[C@H]([C@@H](C)CC)NC(=O)[C@H](CCCCN)NC1=O)[C@@H](C)CC)[C@@H](C)O [GLFPKINKKKAKTGVFNIIKTVGKEAGMDLIRTGIDTIGCKIKGEC] | 
 | ≥ 50 µM | 25 µM (≈ 45.5 µg/mL) | > 50 µM | CC[C@H](C)[C@H](NC(=O)CNC(=O)[C@H](CC(N)=O)NC(=O)[C@H](CC(C)C)NC(=O)[C@H](CC(C)C)NC(=O)[C@H](CCCCN)NC(=O)CNC(=O)[C@@H](NC(=O)[C@@H](NC(=O)[C@@H]1CCCN1C(=O)[C@H](CC(C)C)NC(=O)[C@@H](NC(=O)[C@@H](NC(=O)[C@@H]1CCCN1C(=O)[C@H](CC(C)C)NC(=O)[C@@H](N)Cc1ccccc1)C(C)C)[C@@H](C)CC)C(C)C)[C@@H](C)CC)C(=O)N[C@@H](CC(C)C)C(N)=O [FLPVILPVIGKLLNGIL] | 
 | 8 µM (≈ 20.6 µg/mL) | 4 µM (≈ 10.3 µg/mL) | 7 µM (≈ 18 µg/mL) | CC[C@H](C)[C@@H]1NC(=O)[C@H](C)NC(=O)[C@@H](NC(=O)[C@H](Cc2ccccc2)NC(=O)[C@@H](NC(=O)[C@H](CCCCN)NC(=O)[C@@H]2CCCN2C(=O)[C@H](CC(C)C)NC(=O)[C@H](Cc2ccccc2)NC(=O)[C@H](CCCCN)NC(=O)[C@H](C)NC(=O)[C@H](C)NC(=O)[C@@H](NC(=O)CNC(=O)[C@H](C)NC(=O)[C@@H](NC(=O)[C@@H](NC(=O)[C@@H]2CCCN2C(=O)[C@H](CC(C)C)NC(=O)[C@@H](N)Cc2ccccc2)C(C)C)[C@@H](C)CC)C(C)C)[C@@H](C)CC)CSSC[C@@H](C(=O)O)NC(=O)[C@H](CCCCN)NC(=O)[C@H](CCCCN)NC(=O)[C@H]([C@@H](C)O)NC1=O [FLPVIAGVAAKFLPKIFCAITKKC] | 
12.5 µM (≈ 42.9 µg/mL) |  |  |  | CC[C@H](C)[C@H](NC(=O)[C@H](C)NC(=O)[C@H](CC(C)C)NC(=O)[C@H](CC(=O)O)NC(=O)[C@H](CCCCN)NC(=O)[C@H](Cc1ccccc1)NC(=O)[C@@H](NC(=O)[C@@H](NC(=O)[C@H](CC(C)C)NC(=O)[C@H](Cc1ccccc1)NC(=O)[C@@H](N)CO)[C@@H](C)O)[C@@H](C)O)C(=O)N[C@@H](CCCCN)C(=O)N[C@@H](C)C(=O)N[C@@H](C)C(=O)N[C@@H](CCCCN)C(=O)N[C@@H](CO)C(=O)N[C@@H](C)C(=O)NCC(=O)N[C@@H](CCC(N)=O)C(=O)N[C@@H](CO)C(=O)N[C@H](C(=O)N[C@@H](CC(C)C)C(=O)N[C@@H](CO)C(=O)N[C@H](C(=O)N[C@@H](CC(C)C)C(=O)N[C@@H](CO)C(=O)N[C@H]1CSSC[C@@H](C(=O)O)NC(=O)[C@H]([C@@H](C)O)NC(=O)[C@H](CC(N)=O)NC(=O)[C@H](CO)NC(=O)[C@H](CC(C)C)NC(=O)[C@H](CCCCN)NC1=O)[C@@H](C)O)C(C)C [SFLTTFKDLAIKAAKSAGQSVLSTLSCKLSNTC] | MIC [8]: 6.3 µM (≈ 21.6 µg/mL); MIC [9]: 25 µM (≈ 85.8 µg/mL)
≥ 100 µM | ≥ 100 µM |  |  | CC[C@H](C)[C@@H]1NC(=O)[C@H](CCCCN)NC(=O)[C@@H](NC(=O)[C@H](CCCCN)NC(=O)[C@H](CC(C)C)NC(=O)[C@H](CCCCN)NC(=O)[C@H](CC(=O)O)NC(=O)[C@H](CC(C)C)NC(=O)[C@H](CC(C)C)NC(=O)[C@@H](NC(=O)[C@@H](NC(=O)[C@H](C)NC(=O)[C@@H](NC(=O)[C@H](CC(N)=O)NC(=O)[C@H](CCCCN)NC(=O)[C@H](C)NC(=O)[C@@H](NC(=O)[C@H](CC(N)=O)NC(=O)[C@H](CCCCN)NC(=O)[C@H](C)NC(=O)[C@@H](NC(=O)[C@H](CC(=O)O)NC(=O)[C@H](CCSC)NC(=O)[C@H](Cc2ccccc2)NC(=O)CN)[C@@H](C)O)C(C)C)C(C)C)C(C)C)[C@@H](C)O)CSSC[C@@H](C(=O)O)NC(=O)CNC(=O)CNC(=O)[C@H]([C@@H](C)O)NC1=O [GFMDTAKNVAKNVAVTLLDKLKCKITGGC] | MIC [8]: 25 µM (≈ 75.9 µg/mL); MIC [9]: 12.5 µM (≈ 38 µg/mL); MIC [10]: 100 µM (≈ 304 µg/mL)
 |  | 15 µM (≈ 21 µg/mL) | 125 µM (≈ 175 µg/mL) | CC[C@H](C)[C@H](NC(=O)[C@H](CC(C)C)NC(=O)[C@H](CCCN=C(N)N)NC(=O)CNC(=O)[C@@H](NC(=O)[C@@H](NC(=O)[C@@H]1CCCN1C(=O)[C@H](CC(C)C)NC(=O)[C@@H](N)Cc1ccccc1)[C@@H](C)CC)C(C)C)C(=O)N[C@@H](CO)C(=O)NCC(=O)N[C@@H](CC(C)C)C(=O)N[C@@H](CC(C)C)C(N)=O [FLPIVGRLISGLL] | 
 |  |  |  | CC[C@H](C)[C@H](NC(=O)[C@@H]1CCCN1C(=O)[C@H](CC(C)C)NC(=O)[C@H](Cc1ccc(O)cc1)NC(=O)[C@H](Cc1cnc[nH]1)NC(=O)[C@H](C)NC(=O)CNC(=O)[C@H](C)NC(=O)[C@@H](NC(=O)[C@H](C)NC(=O)[C@H](CS)NC(=O)[C@H](C)NC(=O)[C@@H]1CCCN1C(=O)CNC(=O)[C@H](CS)NC(=O)[C@@H](NC(=O)[C@@H](NC(=O)CNC(=O)CNC(=O)[C@@H](N)C(C)C)[C@@H](C)O)[C@@H](C)CC)C(C)C)C(=O)O [VGGTICGPACAVAGAHYLPI] | MIC (Escherichia coli BL21): ≥ 128 µM
